Test results: ChEMBL document CHEMBL1140306 (J Med Chem, 2005)

Columns and labels:
[1] = molecular target: T1, Acetylcholinesterase (Homo sapiens, UniProt P22303); experiment: Inhibition of human AChE induced beta-amyloid aggregation in thioflavin T-based fluorometric assay; assay type: functional; set-up: concentration or dose not given beside the values; settings: concentration not given here
[2] = molecular target: Cholinesterase (Homo sapiens, UniProt P06276); experiment: Inhibition of isolated human BuChE
[3] = molecular target: T1, Acetylcholinesterase; experiment: Inhibition of recombinant human AChE
[4] = molecular target: Cholinesterases; ACHE & BCHE (Homo sapiens) (UniProt P06276+P22303); experiment: Ratio of IC50 for human BuChE and AChE; assay type: protein assay
Chain of Cholinesterases; ACHE & BCHE (Homo sapiens) (P06276 whole entry, looked up): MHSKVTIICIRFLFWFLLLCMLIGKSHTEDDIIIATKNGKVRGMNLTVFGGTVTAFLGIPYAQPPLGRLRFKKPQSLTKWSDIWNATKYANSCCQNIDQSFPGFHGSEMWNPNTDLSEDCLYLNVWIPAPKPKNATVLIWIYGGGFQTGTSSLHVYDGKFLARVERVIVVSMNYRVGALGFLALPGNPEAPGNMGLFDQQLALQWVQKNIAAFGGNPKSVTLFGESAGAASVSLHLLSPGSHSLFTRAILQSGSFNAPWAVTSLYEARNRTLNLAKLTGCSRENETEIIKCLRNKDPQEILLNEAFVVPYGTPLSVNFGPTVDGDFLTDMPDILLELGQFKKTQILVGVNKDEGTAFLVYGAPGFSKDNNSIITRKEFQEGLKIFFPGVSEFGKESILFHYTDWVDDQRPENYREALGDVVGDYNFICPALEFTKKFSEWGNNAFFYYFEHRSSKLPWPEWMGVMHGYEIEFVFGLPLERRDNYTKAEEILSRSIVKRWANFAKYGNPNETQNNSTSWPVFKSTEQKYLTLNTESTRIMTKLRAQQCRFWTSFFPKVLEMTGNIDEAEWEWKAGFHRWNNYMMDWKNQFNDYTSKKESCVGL
Chain of Cholinesterases; ACHE & BCHE (Homo sapiens) (P22303 whole entry, looked up): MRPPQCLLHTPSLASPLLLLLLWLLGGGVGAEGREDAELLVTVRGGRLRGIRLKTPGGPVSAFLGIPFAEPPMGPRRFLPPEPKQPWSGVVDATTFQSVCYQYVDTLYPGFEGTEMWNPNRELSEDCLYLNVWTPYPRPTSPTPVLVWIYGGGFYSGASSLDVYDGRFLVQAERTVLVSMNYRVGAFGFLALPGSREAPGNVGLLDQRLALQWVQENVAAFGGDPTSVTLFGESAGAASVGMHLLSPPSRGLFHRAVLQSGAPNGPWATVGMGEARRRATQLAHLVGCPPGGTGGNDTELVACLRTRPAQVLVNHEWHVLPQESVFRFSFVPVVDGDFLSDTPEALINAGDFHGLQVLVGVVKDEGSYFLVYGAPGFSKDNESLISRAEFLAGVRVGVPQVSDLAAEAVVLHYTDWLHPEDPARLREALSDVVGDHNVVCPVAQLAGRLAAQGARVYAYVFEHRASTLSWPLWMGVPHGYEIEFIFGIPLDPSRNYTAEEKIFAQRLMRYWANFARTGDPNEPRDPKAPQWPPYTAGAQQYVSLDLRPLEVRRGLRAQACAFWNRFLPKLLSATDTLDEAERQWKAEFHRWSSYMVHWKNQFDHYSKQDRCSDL

Chain of Cholinesterase (P06276 whole entry): as the sequence (P06276 whole entry, looked up) above
T1 sequence (P22303 whole entry): as the sequence (P22303 whole entry, looked up) above

SMILES	inhibition [1] [%]	IC50 [2] [nM]	IC50 [3] [nM]	Ratio [4]
CNC(=O)Oc1ccc2c(c1)[C@]1(C)CCN(C)[C@@H]1N2C	30			
CNC(=O)Oc1cccc(CN(C)CCCCCCCOc2ccc3c(c2)O/C(=C\c2cc(Cl)cc(Cl)c2)C3=O)c1	47.6	130	44.6	2.91
CNC(=O)Oc1cccc(CN(C)CCCCCCCOc2ccc3c(c2)O/C(=C\c2cc(OC)c(OC)c(OC)c2)C3=O)c1	41	136	0.52	261
CN(CCCCCCCOc1ccc2c(c1)O/C(=C\c1cccc3ccccc13)C2=O)Cc1cccc(O)c1	49.5			0.09
CNC(=O)Oc1cccc(CN(C)CCCOc2ccc3c(c2)O/C(=C\c2ccc4ccccc4c2)C3=O)c1	35	70.3	3.41	20.6
CNC(=O)Oc1cccc(CN(C)CCCOc2ccc3c(=O)c4ccccc4oc3c2)c1	< 10			
CNC(=O)Oc1cccc(CN(C)CCCCCCCOc2ccc3c(c2)O/C(=C\c2ccccc2)C3=O)c1	43.3	57.9	1.95	29.7
CNC(=O)Oc1cccc(CN(C)CCCCCCCOc2ccc3c(c2)CC/C(=C\c2cc(OC)c(OC)c(OC)c2)C3=O)c1	33.3	84.4	4.94	17.1
CNC(=O)Oc1cccc(CN(C)CCCCCCCOc2ccc3c(c2)O/C(=C\c2ccc(Cl)c(Cl)c2)C3=O)c1	49.1	94.6	8	11.8
CNC(=O)Oc1cccc(CN(C)CCCOc2ccc3c(c2)O/C(=C\c2cccc4ccccc24)C3=O)c1	37.2	44.3	6.86	6.45
CNC(=O)Oc1cccc(CN(C)CCCCCCCOc2ccc3c(c2)C/C(=C\c2cc(OC)c(OC)c(OC)c2)C3=O)c1	32.8	81.3	1.8	45.2
CNC(=O)Oc1cccc(CN(C)CCCCCCCOc2ccc3c(c2)OCC3=O)c1	17.5	11400		7.08
CNC(=O)Oc1cccc(CN(C)CCCCCCCOc2ccc3c(=O)c4ccccc4oc3c2)c1	< 10			51.6
CNC(=O)Oc1cccc(CN(C)CCCCCCCOc2ccc3c(c2)O/C(=C\c2cccc4ccccc24)C3=O)c1	66.7	40.2	2.76	14.5
CNC(=O)Oc1cccc(CN(C)CCCOc2ccc3c(c2)O/C(=C\c2cc(OC)c(OC)c(OC)c2)C3=O)c1	29.2	155	2.99	51.8
CNC(=O)Oc1cccc(CN(C)CCCCCCCOc2ccc3c(c2)O/C(=C\c2c4ccccc4cc4ccccc24)C3=O)c1	65.3	761	79.1	9.6
CNC(=O)Oc1cccc(CN(C)CCCCCCCOc2ccc3c(c2)OC/C(=C\c2cc(OC)c(OC)c(OC)c2)C3=O)c1	45.3	153	9.81	15.6
